Measured values published in patent US5192799A, “Coumaran group containing amine compounds and their acid addition salts and quaternary ammonium salts and the use thereof as anti arrhythmic agents and as psychotropic agents” (Mitsui Petrochemical Industries, Ltd., priority 1987, dated 1993).
Like-named read-outs stand apart in the source and are kept apart here.

Tests used:
[1] = target: T1, dopamine 2 receptor (Rattus norvegicus, UniProt P61169); experiment: [3H]spiperone binding assay (affinity for dopamine 2 receptor); set-up: species or system Wistar-strain male rat; conditions: rat striatal membranes, 0.5 nM [3H] spiperone, 37° C., 10 minutes
T1 construct: membrane fractions prepared from the brain a Wistarstrain male rat; from tissue; host or cells: rat brain striatum (Wistar, male), membrane fraction
T1 sequence (P61169 whole entry): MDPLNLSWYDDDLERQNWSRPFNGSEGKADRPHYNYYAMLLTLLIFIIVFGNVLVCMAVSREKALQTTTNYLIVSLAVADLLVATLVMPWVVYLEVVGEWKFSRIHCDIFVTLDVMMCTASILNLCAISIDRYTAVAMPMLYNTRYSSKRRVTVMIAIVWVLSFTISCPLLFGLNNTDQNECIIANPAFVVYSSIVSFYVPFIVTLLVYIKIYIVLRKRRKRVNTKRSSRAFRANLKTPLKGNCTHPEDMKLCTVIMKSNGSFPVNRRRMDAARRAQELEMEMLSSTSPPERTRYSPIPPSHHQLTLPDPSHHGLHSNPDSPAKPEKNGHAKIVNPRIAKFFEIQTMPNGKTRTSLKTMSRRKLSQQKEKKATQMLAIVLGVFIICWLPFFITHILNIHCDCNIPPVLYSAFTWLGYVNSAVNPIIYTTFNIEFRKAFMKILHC
Method: (§1) Striatal membranes fractions were prepared from a rat brain, and the affinity of the compounds of this invention on dopamine 2 receptors was determined by using [^3 H] spiperone assay from membranes fractions as an index. Moreover, frontal cortex membranes were prepared from a rat brain, and the affinity of the test drugs on serotonine 2 receptor was determined by using [^3 H] ketenserin binding assay. It was shown that the compounds of general formula (1) of the invention have marked anti-dopamine activity and anti-serotonine activity.
[^3 H]spiperone binding assay
The affinity of the compounds of this invention to the dopamine 2 receptor was determined on the basis of the ability to substitute [^3 H] spiperone from stratal membrane fractions prepared from the brain a Wistarstrain male rat.
(§2) The rat was decapitated, and the brain was obtained. The striatum was homogenized in 40 volumes of 50 mM Tris-HCl buffer (pH 7.6), and then centrifuged. The pellets were again homogenized in 50 volumes of the same buffer, and used in a binding test. The binding test was conducted by the following procedure.
(§3) The stria (original tissue weight 20 mg/ml), 100 microliters of a test drug and 0.5 nM of [^3 H] spiperone were incubated at 37° C. for 10 minutes in 50 mM Tris-HCl buffer (pH 7.6). Then, the reaction mixture was suction-filtered through a glass fiber filter (Watmann GF/B) and washed with a buffer three times.
(§4) The filter was put in a scintillation cocktail (ACSII, Amersham Co.), and after mixing, left to stand overnight. The radioactivity held on the filter was measured by a liquid scintillation counter. The nonspecific binding was measured in the presence of 1 μM of (+) butaclamol. The concentration of the test drug which inhibited 50% of a specific binding was determined from the graph and defined as IC50. Ki was calculated from the following equation. [formula]

[2] = target: T2, serotonine 2 receptor (Rattus norvegicus, UniProt P14842); experiment: [3H]ketanserin binding assay (affinity for serotonine 2 receptor); set-up: species or system Wistar male rat; conditions: rat frontal cortex, 1 nM [3H] ketanserin, 37° C., 10 minutes
T2 construct: frontal cortex fraction prepared from the brain of a Wistar male rat; from tissue; host or cells: rat brain frontal cortex (Wistar, male), membrane fraction
T2 sequence (P14842 whole entry): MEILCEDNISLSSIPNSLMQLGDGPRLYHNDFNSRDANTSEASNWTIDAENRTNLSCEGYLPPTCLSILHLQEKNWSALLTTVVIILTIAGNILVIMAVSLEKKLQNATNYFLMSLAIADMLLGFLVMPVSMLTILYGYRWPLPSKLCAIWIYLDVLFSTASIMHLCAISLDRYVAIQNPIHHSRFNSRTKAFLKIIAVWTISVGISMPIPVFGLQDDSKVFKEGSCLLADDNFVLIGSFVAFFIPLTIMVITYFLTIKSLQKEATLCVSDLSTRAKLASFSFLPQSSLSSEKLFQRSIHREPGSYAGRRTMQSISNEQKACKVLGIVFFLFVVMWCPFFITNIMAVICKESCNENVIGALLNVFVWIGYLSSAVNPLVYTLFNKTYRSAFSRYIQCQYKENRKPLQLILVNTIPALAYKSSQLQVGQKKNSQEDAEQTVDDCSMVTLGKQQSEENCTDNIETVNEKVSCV
Method: as §1
[^3 H] ketanserin binding assay
The affinity of the compound of the invention was determined on the basis of the ability to substitute [^3 H] ketanserin from a frontal cortex fraction prepared from the brain of a Wistar male rat.
as §2, with “The frontal cortex” for “The striatum”, “in 100” for “in 50”
as §3, with “frontal cortex” for “stria”, “1” for “20”, “1” for “0.5”, “ketanserin” for “spiperone”
as §4, with “methysergide.” for “(+) butaclamol.”, “IC5.” for “IC50.”

[3] = test system: right ventricle (effective refractory period); experiment: Activity on ERP of the right ventricle; format: in vivo, adult mongrel dog; conditions: Canis lupus familiaris, ERP before drug = 100%, read-out: ERP % (ERP prolonging activity)
Method: The pharmacological effects of the compounds of this invention represented by general formula (1) were studied. By using the heart of an adult mongrel dog, the activity of the compounds of general formula (1) were tested in vitro and in vivo. The heart of an anaethetized dog was extracted and suspended in a chamber at 37° C. in Tyrode's solution. The drug was added to Tyrode's solution being perfused through the heart specimen, and electrophysiological effects of the drug on cardiac action potential duration (APD) and maximum rate of depolarization were studied. An anaethetized dog was cut open at the chest. […] In an anaethetized and open-chested adult mongrel dug, a silver-silver chloride electrode was sutured to the right ventricle, and ventricular pacing was performed at a stimulation interval of 400 msec for a duration time of 4 msec, twice diastolic threshold. Then, a small amount of alcohol was injected through the sinus artery to extinguish the pacemaker activity, and under ventricular pacing, ERP was measured. Ten stimulations were taken as one train, and the interval between trains when the response to the first stimulation disappeared was defined as ERP. […] ERP before drug administration (intravenously or intraduodenally) was taken as 100%, and ERP prolonging activity of the drugs was expressed by %.

[4] = test system: Purkinje fiber; experiment: Effect on APD (APD75, field-stimulated right ventricular free wall); format: cell-based, adult mongrel dog; conditions: 20 minutes incubation, 37° C., 1 Hz, control before drug = 100%; for activation at 1 µg/mL / activation at 3 µg/mL / activation at 10 µg/mL: Canis lupus familiaris, purkinje, 20 min, read-out: APD75 % (percent change in APD75); for activation at 10 µg/mL: dose 10 μg/ml
Method: The pharmacological effects of the compounds of this invention represented by general formula (1) were studied. By using the heart of an adult mongrel dog, the activity of the compounds of general formula (1) were tested in vitro and in vivo. The heart of an anaethetized dog was extracted and suspended in a chamber at 37° C. in Tyrode's solution. The drug was added to Tyrode's solution being perfused through the heart specimen, and electrophysiological effects of the drug on cardiac action potential duration (APD) and maximum rate of depolarization were studied. An anaethetized dog was cut open at the chest.
An adult mongrel dog was anaethetized with intravenous administration of pentobarbital, 30 mg/kg. The heart was quickly removed, and the right ventricular free wall was dissected in the Tyrode's solution. The right ventricular free wall was fixed within an incubator at 37° C., and field stimulation at 1 Hz was carried out. Intracellular potentials were measured by piercing glass microelectrodes (10-20 megaohms) into the Purkinje fiber and the wave form of cardiac action potential drawn on an oscilloBraun tube via an amplifier was analyzed by a computer. Value of APD was obtained at 75% of full repolarization (APD75). The drug was added to Tyrode's solution (20 ml) perfused through the specimen. The effect of the drug was expressed by a percent change in APD75 after incubation for 20 minutes with the control value of APD before application of the drug being taken as 100%.

[5] = in vivo; conditions: mouse, in vivo
Method: By using male ddY-strain 5-week old mice (3 to 4 per group), the compounds of general formula (1) were each administered orally or intraperitoneally as a solution in saline or as a suspension in methyl cellulose, and 24 hours after the administration, the toxicity of the compounds was evaluated.

[6] = test system: atrial fibrillation; experiment: Atrial fibrillation model; format: in vivo, mongrel dog; conditions: dose of 0.3 to 3 mg/kg or 1 to 10 mg/kg
From the text: Furthermore, the anaethetized dog was cut open at the chest. Bipolar electrodes were sutured to the right atrial surface, and stimulation electrodes were attached to the vagus nerves at both sides of the cervical region. Atrial fibrillation was induced by the method of Goldberger et al. A. L. Goldberger et al.: […] Further, the anaethetized dog was cut open at the chest. Left anterior descending coronary artery was ligated, and ninety minutes later, reperfused to prepare a myocardial infarction which was liable to develop tachycardia. At that time, a bipolar plunge electrode was placed in the interventricular septum near the ligated site. Several days after the operation, programmed electrical stimulation was applied to induce tachycardia. The effect of the drug to cause disappear of tachycardia was examined. In an anaethetized and open-chested mongrel dog, bipolar electrodes (silver and silver-silver chloride electrodes) were sutured respectively to the right atrium for stimulation and recording. The vagus nerves on both sides of the cervical region were isolated and cut, and stimulation electrodes were attached to the peripheral end. The atrial fibrillation was induced in accordance with the method of Goldberger et al. After cardiac arrest induced by stimulating the vagus nerves, electrical stimulation was applied to the right atria at a high frequency.

[7] = po, LD50 p.o., p.o., 24 hours after administration, male ddY mice

Row | SMILES | Ki [1] [nM] | Ki [2] [nM] | other results
1 | CCCCCCCN(CC)CCCOc1ccc2c(c1)OCC2=O.Cl [Compound 102, 6-3-(N-ethyl-N-heptylamino)propyloxycoumaran-3-one hydrochloride] |  |  | change in vivo at 0.1 mg/kg ([3]; iv, 0.1 mg/kg i.v.): 11.7 ± 3.2%; change in vivo at 0.3 mg/kg ([3]; iv, 0.3 mg/kg i.v.): 21.3 ± 3.3%; change in vivo at 1 mg/kg ([3]; iv, 1 mg/kg i.v.): 23.3 ± 2.9%; change in vivo at 0.1 mg/kg ([3]; 0.1 mg/kg i.d.): 0%; change in vivo at 0.3 mg/kg ([3]; 0.3 mg/kg i.d.): 13%; change in vivo at 1 mg/kg ([3]; 1 mg/kg i.d.): 27%; APD75 % (percent change in APD75) ([4]; dose 1 μg/ml): 20%; APD75 % (percent change in APD75) ([4]; dose 3 μg/ml): 30%; LD50 at 24 h ([5]; ip, LD50 i.p., i.p., 24 hours after administration, male ddY mice): ~100 mg/kg; LD50 at 24 h [5, 7]: ~300 mg/kg; disappearance of atrial fibrillation [6]: could cause disappearance fibrillation
2 | O=C1COc2cc(OCCCN3CCC(c4ccccc4)CC3)ccc21 [Compound 1138] | 329 | 173 | 
3 | O=C1COc2cc(OCCCN3CCC4(CC3)C(=O)NCN4c3ccccc3)ccc21 [Compound 1246] | > 400 | > 600 | 
4 | O=C1COc2cc(OCCCN3CCC(O)(c4ccccc4)CC3)ccc21 [Compound 1150] | > 400 | 306 | activation at 1 µg/mL ([4]; dose 1 μg/ml): 4%; activation at 3 µg/mL ([4]; dose 3 μg/ml): 12%; activation at 10 µg/mL [4]: 14%; LD50 at 24 h ([5]; po): > 300 mg/kg
5 | CS(=O)(=O)NC1CCN(CCCOc2ccc3c(c2)OCC3=O)CC1 [Compound 1286] | > 400 | 475 | change in vivo at 0.1 mg/kg ([3]; iv, 0.1 mg/kg i.v.): 8.3%; change in vivo at 0.3 mg/kg ([3]; iv, 0.3 mg/kg i.v.): 8.3%; change in vivo at 1 mg/kg ([3]; iv, 1 mg/kg i.v.): 16.6%; change in vivo at 3 mg/kg ([3]; iv, 3 mg/kg i.v.): 16.6%; activation at 3 µg/mL ([4]; dose 3 μg/ml): 7%; LD50 at 24 h [5, 7]: > 300 mg/kg
6 | O=C1COc2cc(OCCCN3CCC4(CC3)OCCO4)ccc21 [Compound 1298] | > 400 | 382 | LD50 at 24 h [5, 7]: > 300 mg/kg
7 | O=C1COc2cc(OCCCN3CCC(O)(c4ccc(Cl)cc4)CC3)ccc21 [Compound 1154] | > 400 | > 298 | 
8 | CCCCN(CCCC)CCCOc1ccc2c(c1)OCC2=O [Compound 144] |  |  | change in vivo at 0.1 mg/kg ([3]; iv, 0.1 mg/kg i.v.): 10 ± 1.7%; change in vivo at 0.3 mg/kg ([3]; iv, 0.3 mg/kg i.v.): 15.5 ± 4.9%; change in vivo at 1 mg/kg ([3]; iv, 1 mg/kg i.v.): 21.1 ± 6.2%; activation at 1 µg/mL ([4]; dose 1 μg/ml): 13%; activation at 3 µg/mL ([4]; dose 3 μg/ml): 26%; activation at 10 µg/mL [4]: 33%; disappearance of atrial fibrillation [6]: could cause disappearance fibrillation

Now from value to molecule, other results behind:

Row | Ki [1] [nM] | Ki [2] [nM] | SMILES | other results
9 | > 400 | > 600 | CN1CCN(CCCOc2ccc3c(c2)OCC3=O)CC1 [Compound 1178] | 
10 | > 400 | > 600 | O=C1COc2cc(OCCCN3CCC(N4CCCCC4)CC3)ccc21 [Compound 1228] | 
11 | > 400 | > 600 | O=C1COc2cc(OCCCN3CCN(Cc4ccccc4)CC3)ccc21 [Compound 1182] | 
12 | > 400 | > 600 | O=C1COc2cc(OCCCN(Cc3ccccc3)Cc3ccccc3)ccc21 [Compound 176] | 
13 | > 400 | > 600 | O=C1COc2cc(OCCCN3CCN(c4ccccn4)CC3)ccc21 [Compound 1264] | 
14 | > 400 | 315 | CN1C(=O)Cc2cnc(N3CCN(CCCOc4ccc5c(c4)OCC5=O)CC3)nc21 [Compound 1186] | 
15 | > 400 | > 600 | O=c1cc(-c2ccccc2)c2ccc(OCCCN3CCC(Cc4ccccc4)CC3)cc2o1 [Compound 1330] | 
16 | > 400 | > 600 | O=C1COc2cc(OCCCN3CCc4ccccc4C3)ccc21 [Compound 1162] | 
17 | > 400 | 227 | O=C1NC(=O)c2cc(OCCCN3CCC(Cc4ccccc4)CC3)ccc21 [Compound 1334] | 
18 | > 400 | > 600 | CC(=O)Oc1coc2cc(OCCCN3CCC(Cc4ccccc4)CC3)ccc12 [Compound 1344] | 
